Target: hACSL5 (Homo sapiens (Human), UniProt Q9ULC5)
Assay: Human ACSL5 coupled enzyme Amplex Red assay
Assay type: biochemical
Conditions: read-out: hACSL5 IC50
Description: Human ACSL5 (33-683) was cloned with a C-terminal 6 His tag and expressed in insect cells (sf9) as per standard insect cell expression protocols. Human ACSL5 was enriched by affinity nickel affinity chromatography followed by Superdex S200 gel filtration column equilibrated in 20 mM HEPES pH 7.8, 500 mM NaCl, 1 mM TCEP, 5% glycerol, 0.1% Triton X^100.
Inhibition of ACSL5 enzyme activity was monitored with a coupled enzyme Amplex Red assay.
The assay is carried out in 384-well microtiterplates. In a total volume of […], compounds are preincubated with 20 nM ACSL5, in a buffer containing 150 mM MOPS-NaOH, 12 mM MgCl2, 0.03% (v/v) Triton X-100, 2.79 U mL-1 Peroxidase and 24 U mL-1 Acyl-CoA Oxidase (pH 7.6). The reaction is started by the addition of substrate and co factors (25 μM oleate, 30 μM CoA, 1 mM ATP and 50 μM Amplex Red) and the fluorescence detected after 10 minutes at 25° C. with a fluorescence reader (BMG-Fluostar; BMG-Technologies) using an excitation wavelength of 535 nm and an emission wavelength of 590 nm.
Concentration-response titration points for each compound tested were filled to the Hill equation yielding concentrations of half maximal inhibition […] and maximal inhibition values.

Sequence of hACSL5 (Q9ULC5 33-683): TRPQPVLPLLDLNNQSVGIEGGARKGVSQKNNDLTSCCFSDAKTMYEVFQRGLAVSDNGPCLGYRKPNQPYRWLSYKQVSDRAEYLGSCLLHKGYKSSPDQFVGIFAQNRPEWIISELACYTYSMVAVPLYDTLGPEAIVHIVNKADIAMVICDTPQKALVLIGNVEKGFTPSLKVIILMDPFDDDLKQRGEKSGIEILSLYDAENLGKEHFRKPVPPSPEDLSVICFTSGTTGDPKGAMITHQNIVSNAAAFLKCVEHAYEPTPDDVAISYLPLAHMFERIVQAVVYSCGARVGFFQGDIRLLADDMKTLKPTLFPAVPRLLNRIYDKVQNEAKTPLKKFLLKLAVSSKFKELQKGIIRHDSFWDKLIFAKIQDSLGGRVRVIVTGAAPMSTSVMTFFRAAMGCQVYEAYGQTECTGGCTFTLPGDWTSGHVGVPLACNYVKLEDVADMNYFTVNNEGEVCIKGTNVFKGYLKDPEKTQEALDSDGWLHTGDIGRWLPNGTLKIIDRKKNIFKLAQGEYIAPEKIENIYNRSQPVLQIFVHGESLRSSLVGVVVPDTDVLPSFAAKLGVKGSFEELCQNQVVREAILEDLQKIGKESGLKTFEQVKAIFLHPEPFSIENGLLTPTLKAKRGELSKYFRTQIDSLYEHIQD

Work on `CC[C@@H](Oc1ccc(C(=O)NS(=O)(=O)c2ccc(O[C@@H]3CCCN(C)C3)cc2)c(F)c1F)c1ccc(OCC2CC2)cn1` [4-((R)-1-(5-(cyclopropylmethoxy)pyridin-2-yl)propoxy)-2,3-difluoro-N-((4-(((R)-1-methylpiperidin-3-yl)oxy)phenyl)sulfonyl)benzamide] yielded an IC50 of 100 to 500 nM.
`CN(C)Cc1ccc(S(=O)(=O)NC(=O)c2ccc(OCc3cccc(Oc4ccccc4)c3)c(F)c2F)cc1` [N-((4-((dimethylamino)methyl)phenyl)sulfonyl)-2,3-difluoro-4-((3-phenoxybenzyl)oxy)benzamide] was tested, and the IC50 was 100 to 500 nM.
`CC(Oc1ccc(C(=O)NS(=O)(=O)c2ccc(CN)cc2)cc1C(F)(F)F)c1cccc(Oc2cnccn2)c1` (stereo not drawn) [N-((4-(aminomethyl)phenyl)sulfonyl)-4-(1-(3-(pyrazin-2-yloxy)phenyl)ethoxy)-3-(trifluoromethyl)benzamide] was tested, and the IC50 was < 100 nM.
For `CNCc1ccc(S(=O)(=O)NC(=O)c2ccc(OCc3cccc(Oc4ccccc4)c3)c(F)c2F)cc1` [2,3-difluoro-N-((4-((methylamino)methyl)phenyl)sulfonyl)-4-((3-phenoxybenzyl)oxy)benzamide], the IC50 was < 100 nM.
In the case of `CC(Oc1ccc(C(=O)NS(=O)(=O)c2ccc(CN)cc2)c(F)c1F)c1cccc(OC2CCCC2)c1` (stereo not drawn) [N-((4-(aminomethyl)phenyl)sulfonyl)-4-(1-(3-(cyclopentyloxy)phenyl)ethoxy)-2,3-difluorobenzamide], the IC50 is reported as 100 to 500 nM.
In the case of `CC(Oc1ccc(C(=O)NS(=O)(=O)c2ccc(CN)cc2)c(F)c1F)c1cccc(Oc2ccccc2)c1` (stereo not drawn) [N-((4-(aminomethyl)phenyl)sulfonyl)-2,3-difluoro-4-(1-(3-phenoxyphenyl)ethoxy)benzamide], the IC50 is reported as < 100 nM.
For `CC[C@@H](Oc1ccc(C(=O)NS(=O)(=O)N2CCN(C)CC2)c(F)c1F)c1cc(OC2CC(OC)C2)ccn1` (stereo partly drawn) [2,3-difluoro-4-((R)-1-(4-((1R,3R)-3-methoxycyclobutoxy)pyridin-2-yl)propoxy)-N-((4-methylpiperazin-1-yl)sulfonyl)benzamide], the IC50 was > 500 nM.
For `CC(Oc1ccc(C(=O)NS(=O)(=O)CCCN2CCOCC2)cc1C(F)(F)F)c1ccc(Oc2cccnn2)cn1` (stereo not drawn) [N-((3-morpholinopropyl)sulfonyl)-4-(1-(5-(pyridazin-3-yloxy)pyridin-2-yl)ethoxy)-3-(trifluoromethyl)benzamide], the IC50 was 100 to 500 nM.
For `CC(Oc1ccc(C(=O)NS(=O)(=O)N2CCN(C)CC2)c(Cl)c1Cl)c1cccc(Oc2ccccc2)c1` (racemic) [rac-(R)-2,3-dichloro-N-((4-methylpiperazin-1-yl)sulfonyl)-4-(1-(3-phenoxyphenyl)ethoxy)benzamide], the IC50 was < 100 nM.
With `NCc1ccc(S(=O)(=O)NC(=O)c2ccc(OCc3cccc(Oc4ccccc4)c3)c(Cl)c2Cl)cc1` [N-((4-(aminomethyl)phenyl)sulfonyl)-2,3-dichloro-4-((3-phenoxybenzyl)oxy)benzamide] the IC50 was < 100 nM.
For `CC[C@@H](Oc1ccc(C(=O)NS(=O)(=O)c2ccc(O[C@H]3CCCN(C)C3)cc2)c(F)c1F)c1ccc(OCC2CC2)cn1` [4-((R)-1-(5-(cyclopropylmethoxy)pyridin-2-yl)propoxy)-2,3-difluoro-N-((4-(((S)-1-methylpiperidin-3-yl)oxy)phenyl)sulfonyl)benzamide], the IC50 was < 100 nM.
In the case of `CC[C@@H](Oc1ccc(C(=O)NS(=O)(=O)N2CC3CCC(C2)N3C)c(F)c1F)c1ccc(Oc2ccccn2)cn1` [2,3-difluoro-N-((8-methyl-3,8-diazabicyclo[3.2.1]octan-3-yl)sulfonyl)-4-((R)-1-(5-(pyridin-2-yloxy)pyridin-2-yl)propoxy)benzamide], the IC50 is reported as < 100 nM.
With `CC[C@@H](Oc1ccc(C(=O)NS(=O)(=O)N2CCN(CCCF)CC2)c(F)c1F)c1ccc(OCC2CC2)cn1` [(R)-4-(1-(5-(cyclopropylmethoxy)pyridin-2-yl)propoxy)-2,3-difluoro-N-((4-(3-fluoropropyl)piperazin-1-yl)sulfonyl)benzamide] the IC50 was < 100 nM.
`CCOc1ccc(C(CC)Oc2ccc(C(=O)NS(=O)(=O)CCCN3CCOCC3)cc2C(F)(F)F)nc1` (stereo not drawn) [4-(1-(5-ethoxypyridin-2-yl)propoxy)-N-((3-morpholinopropyl)sulfonyl)-3-(trifluoromethyl)benzamide] gave an IC50 of 100 to 500 nM.
With `CC[C@@H](Oc1ccc(C(=O)NS(=O)(=O)N2CCC(OCCN(C)C)CC2)c(F)c1F)c1ccc(OCCOC)cn1` [(R)-N-((4-(2-(dimethylamino)ethoxy)piperidin-1-yl)sulfonyl)-2,3-difluoro-4-(1-(5-(2-methoxyethoxy)pyridin-2-yl)propoxy)benzamide] the IC50 was > 500 nM.
With `NCc1ccc(S(=O)(=O)NC(=O)c2ccc(OCC3CCCC3)c(C(F)(F)F)c2)cc1` [N-((4-(aminomethyl)phenyl)sulfonyl)-4-(cyclopentylmethoxy)-3-(trifluoromethyl)benzamide] the IC50 was > 500 nM.
In the case of `CC(COc1ccc(C(=O)NS(=O)(=O)c2ccc(CN)cc2)cc1C(F)(F)F)c1cccc(Oc2ccccc2)c1` (stereo not drawn) [N-((4-(aminomethyl)phenyl)sulfonyl)-4-(2-(3-phenoxyphenyl)propoxy)-3-(trifluoromethyl)benzamide], the IC50 is reported as 100 to 500 nM.
Compound `CC[C@@H](Oc1ccc(C(=O)NS(=O)(=O)N2CC3=C(CN(C)C3)C2)c(F)c1F)c1ccc(OCC2CC2)cn1` [(R)-4-(1-(5-(cyclopropylmethoxy)pyridin-2-yl)propoxy)-2,3-difluoro-N-((5-methyl-3,4,5,6-tetrahydropyrrolo[3,4-c]pyrrol-2(1H)-yl)sulfonyl)benzamide] has an IC50 of 100 to 500 nM.
`NCCc1ccc(S(=O)(=O)NC(=O)c2ccc(OCc3cccc(Oc4ccccc4)c3)c(F)c2F)cc1` [N-((4-(2-aminoethyl)phenyl)sulfonyl)-2,3-difluoro-4-((3-phenoxybenzyl)oxy)benzamide] gave an IC50 of 100 to 500 nM.
In the case of `CCOc1ccc(C(CC)Oc2ccc(C(=O)NS(=O)(=O)c3ccc(OCCNC)cc3)cc2C(F)(F)F)nc1` (stereo not drawn) [4-(1-(5-ethoxypyridin-2-yl)propoxy)-N-((4-(2-(methylamino)ethoxy)phenyl)sulfonyl)-3-(trifluoromethyl)benzamide], the IC50 is reported as < 100 nM.
For `CC[C@@H](Oc1ccc(C(=O)NS(=O)(=O)N2CCC(OC3CCN(C)CC3)CC2)c(F)c1F)c1cc(OC2CC(OC)C2)ccn1` (stereo partly drawn) [2,3-difluoro-4-((R)-1-(4-((1R,3R)-3-methoxycyclobutoxy)pyridin-2-yl)propoxy)-N-((4-((1-methylpiperidin-4-yl)oxy)piperidin-1-yl)sulfonyl)benzamide], the IC50 was > 500 nM.
Compound `CC[C@@H](Oc1ccc(C(=O)NS(=O)(=O)N2CCC(OC3CN(C)C3)CC2)c(F)c1F)c1ccc(OCC2CC2)cn1` [(R)-4-(1-(5-(cyclopropylmethoxy)pyridin-2-yl)propoxy)-2,3-difluoro-N-((4-((1-methylazetidin-3-yl)oxy)piperidin-1-yl)sulfonyl)benzamide] has an IC50 of 100 to 500 nM.
For `CC[C@@H](Oc1ccc(C(=O)NS(=O)(=O)N2CCN(CCCF)CC2)c(F)c1F)c1ccc(Oc2ccccn2)cn1` [(R)-2,3-difluoro-N-((4-(3-fluoropropyl)piperazin-1-yl)sulfonyl)-4-(1-(5-(pyridin-2-yloxy)pyridin-2-yl)propoxy)benzamide], the IC50 was < 100 nM.
`CC(Oc1ccc(C(=O)NS(=O)(=O)c2ccc(CN)cc2)c(Cl)c1Cl)c1cccc(Oc2ccccc2)c1` (racemic) [rac-(R)-N-((4-(aminomethyl)phenyl)sulfonyl)-2,3-dichloro-4-(1-(3-phenoxyphenyl)ethoxy)benzamide] was tested, and the IC50 was < 100 nM.
With `CCCC(C)COc1cccc(C(C)Oc2ccc(C(=O)NS(=O)(=O)c3ccc(CN)cc3)cc2C(F)(F)F)c1` (stereo not drawn) [N-((4-(aminomethyl)phenyl)sulfonyl)-4-(1-(3-((2-methylpentyl)oxy)phenyl)ethoxy)-3-(trifluoromethyl)benzamide] the IC50 was > 500 nM.
With `CC(Oc1ccc(C(=O)NS(=O)(=O)c2ccc(CN)cc2)cc1C(F)(F)F)c1cccc(Oc2cnn(C)c2)c1` (stereo not drawn) [N-((4-(aminomethyl)phenyl)sulfonyl)-4-(1-(3-((1-methyl-1H-pyrazol-4-yl)oxy)phenyl)ethoxy)-3-(trifluoromethyl)benzamide] the IC50 was > 500 nM.
`CC[C@@H](Oc1ccc(C(=O)NS(=O)(=O)c2ccc(O[C@H]3CCCN(C)C3)cc2)c(F)c1F)c1ccc(Oc2ccccn2)cn1` [2,3-difluoro-N-((4-(((S)-1-methylpiperidin-3-yl)oxy)phenyl)sulfonyl)-4-((R)-1-(5-(pyridin-2-yloxy)pyridin-2-yl)propoxy)benzamide] was tested, and the IC50 was < 100 nM.
